These results are taken from patent US5104888A, “Thiazolidine derivatives, their preparation and use” (Sankyo Company, Limited, priority 1985, dated 1992).

What is called inhibition is how much of the control response was suppressed.

Data set [1] concerns the target T1, Aldose reductase (Bos taurus, UniProt P16116).
T1 construct: Aldose reductase was separated and partially purified from bovine lenses; from tissue; host or cells: bovine lens
As to the kind of experiment: Effect on Aldose Reductase (inhibition of enzyme activity, photometric). The conditions noted are these: 1×10^-5 M, aldose reductase partially purified from bovine lenses; read-out: Percent Inhibition of aldose reductase. The class given is biochemical. The procedure:
Aldose reductase was separated and partially purified from bovine lenses by the method of Hayman and Kinoshita [J. Biol. Chem., 240, 877 (1965)]. Enzyme activities were photometrically determined by the method of Varma et al. [Biochem, Pharmac., 25, 2505 (1976)].
The inhibition of aldose reductase activity was determined employing each test compound in a concentration of 1×10^-5 M, and the results are as shown in Table 30.
As a control, the known compound, 5-[4-(1-methylcyclohexylmethoxy)benzyl]thiazolidine-2,4-dione ("Cpd. A") was tested by the same method and the result is also shown in Table 30: […]

In data set [2] the test system is male mice of the ddY strain. As to the kind of experiment: Toxicity (acute oral, one-week observation). In kind it is in vivo. The procedure:
The test animals used were male mice of the ddY strain. The animals were employed in groups of 3. The animals of each group were administered orally with a single test compound in a dose of 300 mg/kg body weight. The compounds employed were those prepared as described in Examples 3, 4, 5 and 13.

[3] abbreviates: oral, 300 mg/kg body weight, male ddY mice, groups of 3, 1 week.

Structures are written as SMILES.

`CC1(COc2ccc(CC3SC(=O)NC3=O)cc2)CCCCC1` (stereo not drawn) [Cpd. A, 5-[4-(1-methylcyclohexylmethoxy)benzyl]thiazolidine-2,4-dione, reference compound]: the inhibition at 10 µM in data set [1] was found to be 16.2%.

As for `CCCCCCCCC1(COc2ccc(CC3SC(=O)NC3=O)cc2)CCc2c(C)c(O)c(C)c(C)c2O1` (stereo not drawn) [Example 3, 5-[4-(6-Hydroxy-5,7,8-trimethyl-2-octylchroman-2-yl-methoxy)benzyl]thiazolidine-2,4-dione], in data set [2] (setting [3]), the “abnormalities attributable to the test compounds during observation” value (“abnormalities attributable” for short) is “no abnormalities” and the “survival at the end of the 1 week observation period” value (“survival at the end” for short) was “All animals were alive”. For `CC(=O)Oc1cc2c(cc1C(C)(C)CC(C)(C)C)OC(C)(COc1ccc(CC3SC(=O)NC3=O)cc1)CC2` (stereo not drawn) [Example 4, 5-[4-(6-Acetoxy-2-methyl-7-(1,1,3,3-tetramethylbutyl)-chroman-2-ylmethoxy)benzyl]thiazolidine-2,4dione], in data set [2] (setting [3]), the “abnormalities attributable” value is on record as “no abnormalities” and the “survival at the end” value is on record as “All animals were alive”. For `CC(C)(C)CC(C)(C)c1cc2c(cc1O)CCC(C)(COc1ccc(CC3SC(=O)NC3=O)cc1)O2` (stereo not drawn) [Example 5, 5-{4-[6Hydroxy-2-methyl-7-(1,1,3,3-tetramethylbutyl)-chroman-2-ylmethoxy]benzyl}thiazolidine-2,4-dione] the same measures were “no abnormalities” and “All animals were alive”. With `Cc1c(C)c2c(c(C)c1O)/C(=N/O)CC(C)(COc1ccc(CC3SC(=O)NC3=O)cc1)O2` (stereo not drawn) [Example 13, 5-{4-[6-Hydroxy-4-(E)-hydroxyimino-2,5,7,8-tetramethylchroman-2-ylmethoxy]benzyl}thiazolidine-2,4-dione], in data set [2] (mouse, in vivo, po, 300 mg/kg), the “abnormalities attributable” value is listed as “no abnormalities” and the “survival at the end” value was “All animals were alive”. Further, the inhibition at 10 µM in data set [1] was determined as 55.5%. On to `Cc1c(C)c2c(c(C)c1OCC(=O)O)CCC(C)(COc1ccc(CC3SC(=O)NC3=O)cc1)O2` (stereo not drawn) [Example 58, α-{2-[4-(2,4-Dioxothiazolidin-5-ylmethyl)phenoxymethyl]-2,5,7,8-tetramethylchroman-6yloxy}acetic acid], for which, in data set [1], the inhibition at 10 µM turned out to be 51.6%.

Turning to `Cc1c(C)c2c(c(C)c1OCC(=O)O)C(=O)CC(C)(COc1ccc(CC3SC(=O)NC3=O)cc1)O2` (stereo not drawn) [Example 59, α-{2-[4-(2,4-Dioxothiazolidin-5-ylmethyl)-phenoxymethyl]-2,5,7,8-tetramethyl-4-oxochroman-6-yloxy}acetic acid], the inhibition at 10 µM in data set [1] came to 79.5%.
